Results reported in ChEMBL document CHEMBL4312037, “Fragment hopping-based discovery of novel sulfinylacetamide-diarylpyrimidines (DAPYs) as HIV-1 nonnucleoside reverse transcriptase inhibitors” (Eur J Med Chem, 2020).

Experiments:
in vitro [1] = conditions: human, MT4 cells; MT4 cells infected with HIV1 3B
Description: Selectivity index, ratio of CC50 for cytotoxicity against human MT4 cells to EC50 for antiviral activity against HIV1 3B infected in human MT4 cells

[2] = tested on: Human immunodeficiency virus 1; experiment: Antiviral activity against HIV1 3B infected in human MT4 cells assessed as virus-induced cytopathic effect incubated for 5 days by MTT assay; assay type: functional, organism-based; conditions: Human immunodeficiency virus 1, 3B, MT4, 120 h
[3] = Cytotoxicity against human MT4 cells assessed as reduction in cell viability incubated for 5 days by MTT assay; assay type: cell-based
[4] = Stability in rat liver microsomes assessed as half life; assay type: ADME, Microsome
[5] = Stability in human liver microsomes assessed as intrinsic clearance; assay type: ADME, Microsome; conditions: read-out: CLH
[6] = tested on: Human immunodeficiency virus 1; experiment: Antiviral activity against HIV1 3B harbouring NNRTI K103N mutant infected in human MT4 cells assessed as virus-induced cytopathic effect incubated for 5 days by MTT assay; assay type: functional, organism-based; conditions: Human immunodeficiency virus 1, 3B, MT4, 120 h
in vitro [7] = conditions: human, MT4 cells; MT4 cells infected with HIV1 3B K103N mutant
Description: Selectivity index, ratio of CC50 for cytotoxicity against human MT4 cells to EC50 for antiviral activity against HIV1 3B harbouring NNRTI K103N mutant infected in human MT4 cells

[8] = molecular target: Human immunodeficiency virus type 1 reverse transcriptase (Human immunodeficiency virus 1, UniProt Q72547)
Description: Inhibition of recombinant wild type HIV-1 His-tagged reverse transcriptase p66/p51 expressed in Escherichia coli JM109 using poly(rA)/oligo(dT)16 as template/primer incubated for 40 mins by pico-green based spectrofluorometric analysis

[9] = Stability in human liver microsomes assessed as half life; assay type: ADME, Microsome
[10] = Stability in rat liver microsomes assessed as intrinsic clearance; assay type: ADME, Microsome; conditions: read-out: CLH
[11] = tested on: Human immunodeficiency virus 1; experiment: Antiviral activity against HIV1 harbouring NNRTI K103N; assay type: functional, organism-based
[12] = tested on: Human immunodeficiency virus 1; experiment: Antiviral activity against HIV1; assay type: functional, organism-based

Compound | selectivity ratio (in vitro [1]) | EC50 [2] [nM] | CC50 at 120 h [3] [nM] | half-life [4] [h] | microsomal CLint [5] [µL/min/mg] | EC50 [6] [nM] | selectivity ratio (in vitro [7]) | IC50 [8] [nM] | half-life [9] [h] | microsomal CLint [10] [µL/min/mg] | EC50 [11] [nM] | EC50 [12] [nM]
COc1cc2nc([S+]([O-])CC(=O)Nc3ccc(C#N)cc3)nc(Nc3c(C)cc(/C=C/C#N)cc3C)c2cc1OC (stereo not drawn) | > 8870 | 24.9 | > 221000 | 1.35 | 8.45 | 10.4 | > 21200 | 5.7 | 1.37 | 8.58 | – | –
O=C(CSc1nnc(Br)n1-c1ccc(C2CC2)c2ccccc12)Nc1ccc(C(=O)O)cc1Cl | – | – | – | – | – | – | – | – | – | – | < 3 | 2.85
COc1cc2nc(Nc3ccc(C#N)cc3)nc(Nc3c(Cl)cc(/C=C/C#N)cc3Cl)c2cc1OC | 1890 | 5.3 | 9920 | – | – | 6.3 | 1580 | 46 | – | – | – | –
